Results: patent US6545048B1, “Compositions and methods of treating cancer using compositions comprising an inhibitor or endothelin receptor activity” (California Institute of Technology, priority 1999, dated 2003)
Entries after “also recorded” stand apart in the source; their conditions may differ. Where a SMILES comes first, the peptide text is derived from it. [ ]: non-standard residue; d: D form.

Key:
A375 cells = assay: MTS assay, S6c alone or in combination with BQ788; format: cell-based, human
Experimental: In experiments similar to those illustrated in FIG. 2, S6c was tested for its effects on cultured A375 cells, alone or in combination with BQ788, at various concentrations.
(§1) Cell culture. Human melanoma cell lines were obtained from the American Tissue Culture Collection (ATCC) and were cultured with Dulbecco's Eagle medium (ATCC), containing 10% fetal calf serum, glutamine (Gibco) and antibiotics (concentration; Pen-Strep mix, Gibco) in a humidified incubator with 5% CO2 at 37° C. BQ788 and BQ123 (Calbiochem) were dissolved in 2% polyoxythylene (60) hydrogenated castor oil (HCO60; Nikko Chemicals). Cells were cultured in 96 well ELISA plates. For the cell viability/cell number assay, the day after plating, inhibitor or vehicle was added ard the cultures incubated for 4 days. The MTS assay was used to quantify cells by measuring OD at […] (Promega).
Thus, the ability of BQ788 to lower melanoma cell number is likely to be through its action on ETRB and not as a side effect on another aspect of melanoma cell physiology.

kidney 293 cells [1] = assay: MTS cell viability/cell number assay, kidney cells; format: cell-based, human; details: high concentrations, 4 days
A375 melanoma tumor [2] = assay: Histology of tumors from the i.p. experiment (TUNEL, anti-CD31); format: in vivo, nude mice
Experimental: FIGS. 8A-8D show representative sections from 4 tumors from BQ788 injected mice and FIGS. 8E-8G show tumors from vehicle-injected mice. […] The magnification is 20×.
Immunohistochemistry. Tumors were frozen on dry ice, cut on a cryostat into 20 μm sections, and stored at −80° C. Sections were rinsed in calcium and magnesium-free phosphate buffered saline (PBS), fixed in 4% paraformaldehyde for 1 hour at room temperature, blocked with 2% rabbit serum and incubated with primary antibody overnight at 4° C. After washing in PBS sections were incubated with a biotinylated secondary antibody, and staining developed using the Elite ABC kit (Vector Laboratories, CA). The primary antibodies used in this study were monoclonal rat anti-mouse CD31 (platelet endothelial cell adhesion molecule) and rat anti-mouse CD45 (leukocyte common antigen found on all cells of hematopoietic origin, except erythrocytes) (Pharmagen, San Diego, Calif.). A cell death kit was used for TUNEL staining (Boehringer Mannheim).
Several of the tumors from the i.p. injection experiment were taken for histological examination on day 10. Sections were stained with anti-CD31 antibody for angiogenesis, and with the TUNEL method for apoptosis. […] These effects in culture appear mediated by the action of the drug on ETRB itself, as BQ788 is ineffective on A375 cells in the presence of the ETRB agonist S6c. A further indication of the specificity of the action of BQ788 is its very different effect on kidney 293 cells.

[3] = tested on: human melanoma cell lines; assay: Morphology of cultured melanoma cells treated with antagonist (bright field); format: cell-based
Experimental: (§2) Cells were cultured for 4 days with 100 μM BQ788 (FIGS. A, C, and E) or with vehicle (FIGS. B, D, and F). The cell lines were melanoma line SK-MEL 28 (FIGS. A and B), melanoma line SK-MEL 5 (FIGS. C and D), and kidney 293 (FIGS. E and F). […] Pictures were taken with bright field optics at 40×magnification.
as §1
(§3) To test the hypothesis that ETRB function plays a role in melanoma cell growth and differentiation, we cultured 7 human melanoma cell lines and one human kidney cell line with the selective ETRB antagonist, BQ788.

[4] = literature reports; cited from earlier work
A375 melanoma tumor [5] = assay: Intra-tumor injection, A375 melanoma grafts in nude mice; format: in vivo, nude mice (nu/nu, BALB/c background)
Experimental: Nude mice (nu/nu, BALB/c background) were implanted with grafts of A375 cells subcutaneously on the flank. After the tumors had reached approximately 4 mm in diameter they were injected daily with BQ788 for 9 days. Perpendicular tumor diameters were measured daily to estimate tumor volume. Controls were injected on the same schedule with vehicle. Data from 3 experiments utilizing 10 BQ788-treated mice and 8-vehicle treated mice were pooled. P values were calculated using t test. Similar conclusions come from measuring tumor weights.
For the in vivo experiments we chose the A375 melanoma cell line. Although this line is not the most sensitive to BQ788 treatment in culture, it is known to grow readily in nude mice. First, dissociated cells were injected as a suspension into the flank of nude mice. When tumors developed, one mouse was sacrificed, the tumor removed and cut into pieces of approximately 3 mm in diameter and implanted under the skin of a new series of nude mice. When the tumor reaches 4 mm in diameter (which takes approximately 12 days, but can vary), 25 μl of a solution containing 20, μg/μl of BQ788 dissolved in 2% polyoxythylene (60) hydrogenated castor oil (HCO60) (Ishikawa, et al., Proc. Natl. Acad. Sci. USA, 91:4892-6 (1994)) was injected into the center of the tumor daily for 9 days. Tumors in control mice were injected in the same way with 25 μl of 2% HCO60. Before each injection the tumor dimensions were measured. At the outset, the mean tumor volume was 26 mm^3 in both control and BQ788-treated mice. […] Similar conclusions come from comparison of tumor weights (means of 446 mg versus 93 mg; p<0.005).

A375 melanoma tumor [6] = assay: Systemic (i.p.) administration, A375 melanoma grafts in nude mice; format: in vivo
Experimental: The experiment was similar to that described in FIG. 6, except that the drug and vehicle were injected daily i.p. In FIG. 7A, the data for the 6 BQ788-treated mice were pooled.
We next asked if systemic administration of BQ788 inhibits tumor growth. In these experiments, tumor induction and the starting point of the treatments were as for the intra-tumor approach. At that point, mice were injected i.p. with 100 μl of BQ788 solution (0.6 mg BQ788 in 30% water and 70% saline, at a final HCO60 concentration of 0.6%) once or twice a day for a period of 9 days. Control mice received the same injections but without BQ788. In the first experiment, mice were injected once a day, and in the second experiment the mice were injected in the morning and then again in the early evening. […] However, there was some heterogeneity in the response of the mice to BQ788.

[7] = tested on: human melanoma cell lines; assay: MTS cell viability/cell number assay, melanoma lines; format: cell-based; details: for number of viable cells: 4 days
Experimental: Cells were cultured in the presence of BQ788 or vehicle or with no treatment for 4 days. Three wells of each condition were subjected to the MTS assay. The means were calculated and plotted as percent of the vehicle-treated value, +S.E.M. P values were calculated using […] for absolute values. The experiment was repeated 3 times, each yielding similar results.
as §1

kidney 293 cells [8] = assay: Morphology of cultured kidney 293 cells treated with antagonist (bright field); format: cell-based, human; details: 100 μM, 4 days
Experimental: as §2, §1, §3

[9] = A375, SK-MEL 28 and RPMI 7951 cells

Molecule: CCCC[C@@H](NC(=O)[C@@H](Cc1cn(C(=O)OC)c2ccccc12)NC(=O)[C@H](CC(C)(C)C)NC(=O)N1[C@H](C)CCC[C@@H]1C)C(=O)O [BQ788, N-cis-2,6-dimethylpiperidinocarbonyl-L-γ-methylleucyl-D-1-methoxycarbonyltrptophanyl-D-norleucine]
- effect of BQ788 on cells in the presence of S6c (A375 cells; A375 cells, ETRB agonist S6c present): ineffective
- number of viable cells (kidney 293 cells [1]): not kidney cells; also recorded: is not reduced
- TUNEL labeling (apoptosis) (A375 melanoma tumor [2]; day 10): TUNEL-positive cells are comparatively greater
- angiogenesis (anti-CD31 staining) (A375 melanoma tumor [2]; day 10 (data not shown)): no evidence that BQ788 blocks angiogenesis
- TUNEL labeling (apoptosis) (A375 melanoma tumor [2]; day 10, listed as BQ-788): enhanced TUNEL labeling
- morphology [3, 9]: vacuoles in their cytoplasm
- morphology ([3]; SK-MEL 3 cells): increased surface area (dendritic morphology)
- phenotype / dendricity ([3]; SK-MEL 5 cells, 100 μM, 4 days): dendritic phenotype; also recorded: increased dendricity
- morphology ([3]; SK-MEL 24 and SK-MEL 31 cells): increased pigmentation
- morphology ([3]; SK-MEL 28 and SK-MEL 5, 100 μM, 4 days (FIG. 1 legend)): different shape and accumulation of black pigment
- morphological changes ([3]; SK-MEL 28 cells, 100 μM, 4 days): develop large cytoplasmic vacuoles and enhanced pigmentation
- surface area ([3]; all the melanoma lines): increased surface area
- pigmentation ([3]; most melanoma lines (except for SK-MEL 3)): major increases in pigmentation
- tolerability [4]: can be well tolerated
- growth rate (final size minus initial size) compared to controls (A375 melanoma tumor [5]; 9 days, intra-tumor injection): 6 times slower
- mean tumor volume (A375 melanoma tumor [5]; after 9 days of daily intra-tumor injection, control 376 mm^3, 26 mm^3 at the outset): 84 mm^3
- tumor growth (A375 melanoma tumor [5]; intra-tumor injection daily for 9 days): inhibits melanoma tumor growth
- tumor weight (mean) (A375 melanoma tumor [5]; intra-tumor injection, control 446 mg, p<0.005): 93 mg
- tumor growth (A375 melanoma tumor [6]; i.p. once or twice a day for 9 days, pooled mice): inhibits melanoma tumor growth; also recorded: effective inhibition of tumor growth
- tumor growth, first subgroup of mice (A375 melanoma tumor [6]; i.p., after 6 days, one set of mice): slowed tumor growth
- tumor growth, second subgroup of mice (A375 melanoma tumor [6]; i.p., after 6 days, other set of mice): caused the tumors to regress; also recorded: the tumors shrank and displayed complete growth arrest
- tumor size versus day 1 (A375 melanoma tumor [6]; i.p., first 6 days): did not differ significantly from their size at day 1
- viability [7, 9]: almost complete loss of viability
- sensitivity among the cell lines ([7]; RPMI 7951 cells): highest degree of sensitivity
- viability ([7]; SK-MEL 3 cells): less affected than the other lines
- viability ([7]; SK-MEL 24 and SK-MEL 31 cells): more affected
- number of viable cells ([7]; all 7 melanoma lines, 100 μM): reduces the number of viable cells; also recorded: very significant loss in the number of viable cells
- morphological changes (kidney 293 cells [8]): does not result in any of these morphological changes

Molecule: sarafotoxin 6c [S6c]
- A375 cell number (A375 cells; S6c alone, 0.1 to 1 μM): stimulates cell growth; also recorded: increases A375 cell number
- block of the effects of BQ788 on cell number (A375 cells; S6c in combination with BQ788, A375 cells): can block the inhibitory effects of the ETRB antagonist; also recorded: can completely block the effects of BQ788

Molecule: CC(C)C[C@@H]1NC(=O)[C@@H](C(C)C)NC(=O)[C@@H]2CCCN2C(=O)[C@@H](CC(=O)O)NC(=O)[C@@H](Cc2c[nH]c3ccccc23)NC1=O [BQ123] (cyclo(L[dW][dD]P[dV]))
- cell number ([7]; A375 and SK-MEL 28 melanoma lines): slightly increases cell number
- number of viable cells ([7]; any of the cell lines, even at high concentrations): does not reduce the number of viable cells; also recorded: did not inhibit melanoma cell growth in culture
